For four compounds, IC50 results are on record in BindingDB's records for doi:10.1080/14756360500179333 (University of Karachi, 2005).

The structures appear in SMILES notation.

Usually IC50 stands for the concentration needed to halve the response being measured. A higher IC50 goes with a need for much substance.

This experiment addresses Tyrosinase (Agaricus bisporus). Briefly: Tyrosinase inhibition assays were performed in a 96-well microplate format using SpectraMax 340 (Molecular Devices, CA, USA) microplate reader according to method developed earlier. Particulars: pH 6.8.
`CC(=O)N1CCC(N2CCCCC2)CC1` showed a half-maximal inhibitory concentration (IC50) of 29.9 µM. Take `Cc1ccc(CN2CCC(N3CCCCC3)CC2)cc1` [Tyrosinase Inhibitor, 4]: the IC50 was determined as 1.72 µM. Regarding `C1CCN(C2CCNCC2)CC1` [Tyrosinase Inhibitor, 1], half-maximal inhibition (IC50) was put at 111 µM. The value for `O=[N+]([O-])c1ccc(S(=O)(=O)N2CCC(N3CCCCC3)CC2)cc1` [Tyrosinase Inhibitor, 8] was 8.76 µM.
